Converted amounts (≈) assume the structure as drawn.
system: Candida albicans; experiment: Antifungal activity against Candida albicans MTCC 4748 after 18 hrs by microtiter broth dilution method; assay type: functional; conditions: MTCC 4748, 18 h

Row | Structure (SMILES) | MIC
1 | CCCCCCC(CCC(=O)O)OC (racemic) | 156 µg/mL (≈ 771 µM)
2 | CCCCCCCC(CCC(=O)O)OC (racemic) | 19 µg/mL (≈ 87.8 µM)
3 | CCCCCC[C@H](CCC(=O)O)OC | 19 µg/mL (≈ 93.9 µM)
4 | OC(Cn1cncn1)(Cn1cncn1)c1ccc(F)cc1F [FLUCONAZOLE] | 32 µg/mL (≈ 104 µM)
5 | CCCCCCC[C@H](CCC(=O)O)OC | 78 µg/mL (≈ 361 µM)
6 | CCCCCCC[C@@H](CCC(=O)O)OC | 156 µg/mL (≈ 721 µM)
7 | CCCCCC[C@@H](CCC(=O)O)OC | 39 µg/mL (≈ 193 µM)

system: Candida albicans; experiment: Antifungal activity against Candida albicans MTCC 227 after 18 hrs by microtiter broth dilution method; assay type: functional; conditions: MTCC 227, 18 h

Row | Structure (SMILES) | MIC
8 | CCCCCCC(CCC(=O)O)OC (racemic) | 625 µg/mL (≈ 3090 µM)
9 | CCCCCCCC(CCC(=O)O)OC (racemic) | 156 µg/mL (≈ 721 µM)
10 | CCCCCC[C@H](CCC(=O)O)OC | 19 µg/mL (≈ 93.9 µM)
11 | OC(Cn1cncn1)(Cn1cncn1)c1ccc(F)cc1F [FLUCONAZOLE] | 32 µg/mL (≈ 104 µM)
12 | CCCCCCC[C@H](CCC(=O)O)OC | 156 µg/mL (≈ 721 µM)
13 | CCCCCCC[C@@H](CCC(=O)O)OC | 78 µg/mL (≈ 361 µM)
14 | CCCCCC[C@@H](CCC(=O)O)OC | 1250 µg/mL (≈ 6180 µM)

system: Pichia kudriavzevii; experiment: Antifungal activity against Issatchenkia orientalis MTCC 3020 after 18 hrs by microtiter broth dilution method; assay type: functional; conditions: MTCC 3020, 18 h

Row | Structure (SMILES) | MIC
15 | CCCCCCC(CCC(=O)O)OC (racemic) | 1250 µg/mL (≈ 6180 µM)
16 | CCCCCCCC(CCC(=O)O)OC (racemic) | 312 µg/mL (≈ 1440 µM)
17 | CCCCCC[C@H](CCC(=O)O)OC | 19 µg/mL (≈ 93.9 µM)
18 | OC(Cn1cncn1)(Cn1cncn1)c1ccc(F)cc1F [FLUCONAZOLE] | 128 µg/mL (≈ 418 µM)
19 | CCCCCCC[C@H](CCC(=O)O)OC | 312 µg/mL (≈ 1440 µM)
20 | CCCCCCC[C@@H](CCC(=O)O)OC | 2500 µg/mL (≈ 11600 µM)
21 | CCCCCC[C@@H](CCC(=O)O)OC | 312 µg/mL (≈ 1540 µM)

system: Candida parapsilosis; experiment: Antifungal activity against Candida parapsilosis MTCC 1744 after 18 hrs by microtiter broth dilution method; assay type: functional; conditions: Lodderomyces parapsilosis, MTCC 1744, 18 h

Row | Structure (SMILES) | MIC
22 | CCCCCCC(CCC(=O)O)OC (racemic) | 5010 µg/mL (≈ 24800 µM)
23 | CCCCCCCC(CCC(=O)O)OC (racemic) | 625 µg/mL (≈ 2890 µM)
24 | CCCCCC[C@H](CCC(=O)O)OC | 625 µg/mL (≈ 3090 µM)
25 | OC(Cn1cncn1)(Cn1cncn1)c1ccc(F)cc1F [FLUCONAZOLE] | 16 µg/mL (≈ 52.2 µM)
26 | CCCCCCC[C@@H](CCC(=O)O)OC | 2500 µg/mL (≈ 11600 µM)
27 | CCCCCC[C@@H](CCC(=O)O)OC | 156 µg/mL (≈ 771 µM)

system: Candida albicans; experiment: Antifungal activity against Candida albicans MTCC 3017 after 18 hrs by microtiter broth dilution method; assay type: functional; conditions: MTCC 3017, 18 h

Row | Structure (SMILES) | MIC
28 | CCCCCCC(CCC(=O)O)OC (racemic) | 5010 µg/mL (≈ 24800 µM)
29 | CCCCCCCC(CCC(=O)O)OC (racemic) | 78 µg/mL (≈ 361 µM)
30 | CCCCCC[C@H](CCC(=O)O)OC | 312 µg/mL (≈ 1540 µM)
31 | OC(Cn1cncn1)(Cn1cncn1)c1ccc(F)cc1F [FLUCONAZOLE] | 64 µg/mL (≈ 209 µM)
32 | CCCCCCC[C@H](CCC(=O)O)OC | 1250 µg/mL (≈ 5780 µM)
33 | CCCCCCC[C@@H](CCC(=O)O)OC | 1250 µg/mL (≈ 5780 µM)
34 | CCCCCC[C@@H](CCC(=O)O)OC | 156 µg/mL (≈ 771 µM)

system: Aspergillus niger; experiment: Antifungal activity against Aspergillus niger MTCC 281 after 18 hrs by microtiter broth dilution method; assay type: functional; conditions: MTCC 281, 18 h

Row | Structure (SMILES) | MIC
35 | CCCCCCC(CCC(=O)O)OC (racemic) | 631 µg/mL (≈ 3120 µM)
36 | CCCCCCCC(CCC(=O)O)OC (racemic) | 164 µg/mL (≈ 758 µM)
37 | CCCCCC[C@H](CCC(=O)O)OC | 19 µg/mL (≈ 93.9 µM)
38 | OC(Cn1cncn1)(Cn1cncn1)c1ccc(F)cc1F [FLUCONAZOLE] | 34 µg/mL (≈ 111 µM)
39 | CCCCCCC[C@H](CCC(=O)O)OC | 168 µg/mL (≈ 777 µM)
40 | CCCCCCC[C@@H](CCC(=O)O)OC | 82 µg/mL (≈ 379 µM)
41 | CCCCCC[C@@H](CCC(=O)O)OC | 1240 µg/mL (≈ 6120 µM)

Source: ChEMBL document CHEMBL1795284, “Total synthesis of racemic and (R) and (S)-4-methoxyalkanoic acids and their antifungal activity” (2011)
